Tested on: M. tuberculosis H37Rv growth inhibition
Assay: M. tuberculosis H37Rv growth inhibitors, H37Rv strain (AID 1626)
Conditions: for IC90: measured here: IC90 against H37Rv; for CC50: measured here: Vero cell cytotoxicity

Compound	IC50	IC90	CC50
CC1CCCN(C(=O)C2CCC(CNc3c(N4CCCCC4)c(=O)c3=O)CC2)C1 (centres undefined)	11.7 µM	> 100 µM	
Cc1ccc(Nc2c(-c3ccccn3)nc3cccc(C)n23)cc1	2.72 µM	3.06 µM	1.18 µM
FC(F)(F)c1ccc(N2CCOCC2)c(Nc2nc3ccccc3n3cnnc23)c1	8.57 µM	18.3 µM	24.5 µM
CC(C)(C)n1c(O)c(C=Nc2ccc3c(c2)CCC3)c(=O)[nH]c1=O	37.8 µM	> 100 µM	> 40 µM
c1ccc(C2=Nc3ccccc3OC2)cc1	4.73 µM	8.31 µM	
O=c1oc2ccccc2c(Nc2ccc3ccccc3c2)c1[N+](=O)[O-]	7.32 µM	> 100 µM	> 40 µM
CCOc1ccc(/C=C/C(=O)c2ccccc2)cc1OC		> 100 µM	> 40 µM
CC(C)=CCN1CCN(CCC2=C(C)CCCC2(C)C)CC1CCO (centres undefined)	5.88 µM	6.66 µM	
CCC/C(O)=C1\C(=O)CCCC1=NCCc1c(C)[nH]c2ccc(C)cc12		> 100 µM	
CCCCCOc1ccc(Br)cc1CSC(=N)N	9.43 µM	12 µM	14.8 µM
COc1ccc(NC(=O)COc2ccc3c(c2)CCC3)cc1	16.4 µM	> 100 µM	
Cc1cc(N2C3CCC2CC(O)(c2ccc(F)cc2)C3)nc(-c2ccccc2)n1 (centres undefined)	31.6 µM	> 100 µM	> 40 µM
Cc1nn(-c2ccccc2)c(Cl)c1/C=N/O		> 100 µM	
Cc1ccc(C2CC(C(F)(F)F)n3nc(C(=O)NCc4ccco4)cc3N2)cc1 (centres undefined)	0.92 µM	1.79 µM	
CN1C[C@@H]2C(c3ccc(C(F)(F)F)cc3)C3(c4cccnc4)CC2(C3)[C@H]1c1ccccc1 (some centres undefined)	14.1 µM	21.4 µM	
O=C(OCc1nc2ccccc2s1)c1ccc(Br)o1	12.7 µM	> 100 µM	
COc1cccc(/C=C/C(=O)c2cccc([N+](=O)[O-])c2)c1	6.89 µM	> 100 µM	35.9 µM
CC(Oc1ccc(Cl)cc1Cl)c1nc(-c2ccc(NC(=O)c3ccncc3)cc2)no1 (centres undefined)	33.5 µM	> 100 µM	> 40 µM
Cc1ccc(-n2cc(CN3CCC(CO)(Cc4cccc(C(F)(F)F)c4)CC3)cn2)cc1	4.31 µM	7.09 µM	23.7 µM
COc1cccc(C(=O)Nc2nc(-c3ccccc3)c(-c3ccccc3)o2)c1	< 0.195 µM	6.62 µM	> 40 µM

Compound	IC50	IC90	CC50
CCOC(=O)N1CCC(N2CCCC(C(=O)c3ccc4cc(OC)ccc4c3)C2)CC1 (centres undefined)	8.9 µM	25.1 µM	> 40 µM
COc1ccc(NCN2C(=O)CCC2=O)cc1		> 100 µM	
CCOC(=O)CSc1nc(-c2ccccc2)ns1	5.59 µM	8.55 µM	
COc1ccc(Nc2nc(-c3ccc4c(c3)NC(=O)CO4)cs2)cc1	10 µM	> 100 µM	> 40 µM
NC1CCN(c2nc3c(cc2F)c(=O)c(C(=O)O)cn3-c2ccc(F)cc2F)C1 (centres undefined)	1.29 µM	4.21 µM	
COc1cc(/C=C/c2ccc3c(Br)cc(Br)c(O)c3n2)ccc1O	< 0.195 µM	0.345 µM	14.5 µM
CCc1ccc(CCC(=O)Nc2ccc(C)c(C)c2)o1	14.8 µM	> 100 µM	
O=C(CNC1CCCC1)Nc1ccc(N2CCCCCC2)cc1	8.04 µM	10.2 µM	37.7 µM
O=[N+]([O-])c1cc(CN2CCN(c3cccc(C(F)(F)F)c3)CC2)c2cccnc2c1O	13.2 µM	> 100 µM	1.49 µM
COc1ccc(-n2c(C)nc3sc4c(c3c2=O)CCCC4)cc1	11.7 µM	13.3 µM	
Nc1nc(-c2cccc(F)c2)cs1	11.2 µM	> 100 µM	
COc1cc2c(cc1OC)C1(Nc3c-2c(-c2ccccc2)nn3-c2ccccc2)C(=O)Nc2ccccc21 (centres undefined)	7.21 µM	13.2 µM	23.7 µM
O=C(CSc1nc2ccc(Cl)cc2[nH]1)Nc1ccc2c(c1)CCC2	29.8 µM	> 100 µM	> 40 µM
O=C(Cc1cccs1)N1CCN=C1SCc1ccc(Br)cc1		> 100 µM	
COc1cccc(-c2nc(-c3ccccc3)nc(N3CCN(C)CC3)c2C#N)c1	8.8 µM	12.4 µM	26.7 µM
COc1c(F)c(F)c(C(=O)Nc2ccc(N3CCN(Cc4ccccc4)CC3)cc2)c(F)c1F	35.9 µM	> 100 µM	27.5 µM
CC(=O)/C=C/c1ccc2ccccc2n1	5.65 µM	6.34 µM	16.1 µM
N#Cc1c(SCC(N)=O)nsc1SCc1ccccc1Cl	12.1 µM	14.5 µM	
CCOC(=O)CNc1ccc(C(=O)OCC)cc1[N+](=O)[O-]	3.23 µM	> 100 µM	
CC(C)(C)c1ccccc1OCCOCCN1CCCCCC1	57.8 µM	> 100 µM	

Compound	IC50	IC90	CC50
CCOC(=O)c1cccc(N/C=C/C(=O)c2ccc(OC)c(OC)c2)c1	24 µM	> 100 µM	
Cc1nc2ccc(N)cc2s1	0.6 µM	> 100 µM	
O=C(CSc1ncnc2sc3c(c12)CCCC3)N1CCC(c2noc3ccc(F)cc23)CC1	2.94 µM	4.24 µM	> 40 µM
S=c1[nH]cnc2scc(-c3ccc(Br)cc3)c12		> 100 µM	34.8 µM
COc1ccc(Cn2c(O)c(/C=C3/C=CC=N3)c(=O)[nH]c2=O)cc1	0.269 µM	> 100 µM	> 40 µM
CCOC(=O)N1CCN(C(=O)CSc2nc(-c3cccc(C)c3)ns2)CC1	0.734 µM	0.828 µM	> 40 µM
CC(=O)Nc1nc(-c2cc([N+](=O)[O-])cs2)cs1	< 0.195 µM	> 100 µM	
N=C1S/C(=C\c2ccc(-c3cccc(Cl)c3)o2)C(=O)N1c1nccs1	< 0.195 µM	13.9 µM	5.77 µM
COc1cc(/C=C/C(=O)OCC(=O)NC(=O)NC23CC4CC(CC(C4)C2)C3)ccc1OCC#N	8.37 µM	> 100 µM	> 40 µM
COc1ccc2c(c1)CCc1cnc(N)nc1-2	69.9 µM	> 100 µM	> 40 µM
OC(CNCC(c1ccc(Cl)cc1Cl)c1c[nH]c2ccccc12)c1ccccc1 (centres undefined)	6.68 µM	10.3 µM	11.2 µM
CCn1ccnc1CN(C)Cc1cn(-c2cc(C)ccc2C)nc1-c1ccccc1	5.88 µM	10.3 µM	
CC(=O)Oc1ccc2oc3c(c2c1)C(=O)CCC3	12 µM	> 100 µM	
O=C(Oc1ccc(/C=N/O)cc1)c1ccccc1Cl	28.5 µM	> 100 µM	
O=C(Cc1ccc([N+](=O)[O-])cc1)Nc1cc(C(F)(F)F)cc(C(F)(F)F)c1	0.369 µM	> 100 µM	20.8 µM
Cc1cccc(-c2noc(-c3cc4ccccc4oc3=O)n2)c1	1.28 µM	> 100 µM	
O=C(Nc1ccc(Cl)cc1)Nc1csc([N+](=O)[O-])c1	79.1 µM	> 100 µM	
CCOC(=O)c1ccc(NS(=O)C23CC4CC(CC(C4)C2)C3)cc1 (centres undefined)	7.62 µM	> 100 µM	
CCOc1ccc(N2CC(=O)Nc3ccccc3NCC2=O)cc1	12.5 µM	> 100 µM	
c1nc2n(n1)C1=C(CCCC1)C1(CCCCC1)N2	18.2 µM	> 100 µM	
